# Like-named read-outs stand apart in the source and are kept apart here.
# Key:
# Format in all cases: in vivo
# [1] = system: chickweed (Stellaria media); assay: Test C postemergence; details: Stellaria media, post-emergence
# Method in brief: (§1)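 Rating scale 0–100: 0 means no effect, 100 complete control; taken visually 12 to 14 days post-treatment versus controls. Pre- and postemergence greenhouse applications, postemergence at 1- to 4-leaf stage, non-phytotoxic solvent with surfactant as carrier.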
# [2] = system: soybean (Glycine max); assay: Test C pre/postemergence; details: Glycine max, post-emergence, Postemergence
# Method in brief: as §1
# [3] = system: johnsongrass (Sorghum halepense); assay: Test C pre/postemergence; details: Sorghum halepense, post-emergence, Postemergence
# Method in brief: as §1
# [4] = system: bermudagrass (Cynodon dactylon); assay: Test C pre/postemergence; details: Cynodon dactylon, post-emergence, Postemergence
# Method in brief: as §1
# [5] = system: lambsquarters (Chenopodium album); assay: Test C pre/postemergence; details: Chenopodium album, post-emergence, Postemergence
# Method in brief: as §1
# [6] = system: giant foxtail (Setaria faberi); assay: Test A pre/postemergence; details: Setaria faberi, 240 h, read-out: Plant response rating, Foxtail, Giant; for pest or weed control at 125 g/ha: 125 g ai/ha; for pest or weed control at 500 g/ha: 500 g ai/ha
# Method in brief: (§2)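 Ratings: 0 = no effect, 100 = complete control, assessed visually about ten days post-treatment in a greenhouse. Applications: soil-directed preemergence spray and postemergence spray on 1- to 2-leaf plants, both using a surfactant-containing non-phytotoxic solvent formulation.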
# [7] = system: morningglory (Ipomoea spp.); assay: Test A pre/postemergence; details: Ipomoea, 240 h, read-out: Plant response rating, Morningglory; for pest or weed control at 125 g/ha: 125 g ai/ha; for pest or weed control at 500 g/ha: 500 g ai/ha
# Method in brief: as §2
# [8] = system: redroot pigweed (Amaranthus retroflexus); assay: Test A pre/postemergence; details: Amaranthus retroflexus, 240 h, read-out: Plant response rating, Pigweed; for pest or weed control at 125 g/ha: 125 g ai/ha; for pest or weed control at 500 g/ha: 500 g ai/ha
# Method in brief: as §2
# [9] = system: velvetleaf (Abutilon theophrasti); assay: Test A pre/postemergence; details: Abutilon theophrasti, 240 h, read-out: Plant response rating, Velvetleaf; for pest or weed control at 125 g/ha: 125 g ai/ha; for pest or weed control at 500 g/ha: 500 g ai/ha
# Method in brief: as §2
# [10] = system: barnyardgrass (Echinochloa crus-galli); assay: Test A pre/postemergence; details: Echinochloa crus-galli, 240 h, read-out: Plant response rating, Barnyardgrass; for pest or weed control at 125 g/ha: 125 g ai/ha; for pest or weed control at 500 g/ha: 500 g ai/ha
# Method in brief: as §2
# [11] = system: crabgrass (Digitaria sanguinalis); assay: Test A pre/postemergence; details: Digitaria sanguinalis, 240 h, read-out: Plant response rating, Crabgrass; for pest or weed control at 125 g/ha: 125 g ai/ha; for pest or weed control at 500 g/ha: 500 g ai/ha
# Method in brief: as §2
# [12] = post-emergence, Postemergence, 0 to 100 scale (0 no effect, 100 complete control)
# [13] = pre-emergence, Preemergence, 0 to 100 scale where 0 is no effect and 100 is complete control, approximately ten days
smiles,measurement,setting,value
"CCOC(=O)c1nc(-c2ccc(Br)cc2)nc(N)c1Cl [Compound 94, ethyl 6-amino-2-(4-bromophenyl)-5-chloro-4-pyrimidinecarboxylate]",pest or weed control at 31 g/ha,"[1]; 31 g ai/ha, read-out: Plant response rating (scale of 0 to 100), Chickweed",45%
same,pest or weed control at 62 g/ha,"[1]; 62 g ai/ha, read-out: Plant response rating (scale of 0 to 100), Chickweed",50%
same,pest or weed control at 125 g/ha,"[1]; 125 g ai/ha, scale 0 to 100 (0 no effect, 100 complete control), read-out: Chickweed plant response rating",95%
same,plant injury at 16 g/ha,"[2]; 16 g ai/ha, read-out: Plant response rating (scale of 0 to 100), Soybean",100%
same,plant injury at 31 g/ha,"[2]; 31 g ai/ha, read-out: Plant response rating (scale of 0 to 100), Soybean",100%
same,plant injury at 62 g/ha,"[2]; 62 g ai/ha, read-out: Plant response rating (scale of 0 to 100), Soybean",100%
same,plant injury at 125 g/ha,"[2]; 125 g ai/ha, scale 0 to 100 (0 no effect, 100 complete control), read-out: Soybean plant response rating",100%
same,pest or weed control at 16 g/ha,"[3]; 16 g ai/ha, read-out: Plant response rating (scale of 0 to 100), Johnsongrass",55%
same,pest or weed control at 31 g/ha,"[3]; 31 g ai/ha, read-out: Plant response rating (scale of 0 to 100), Johnsongrass",60%
same,pest or weed control at 62 g/ha,"[3]; 62 g ai/ha, read-out: Plant response rating (scale of 0 to 100), Johnsongrass",75%
same,pest or weed control at 125 g/ha,"[3]; 125 g ai/ha, scale 0 to 100 (0 no effect, 100 complete control), read-out: Johnsongrass plant response rating",90%
same,pest or weed control at 16 g/ha,"[4]; 16 g ai/ha, read-out: Plant response rating (scale of 0 to 100), Bermudagrass",60%
same,pest or weed control at 31 g/ha,"[4]; 31 g ai/ha, read-out: Plant response rating (scale of 0 to 100), Bermudagrass",70%
same,pest or weed control at 62 g/ha,"[4]; 62 g ai/ha, scale 0 to 100 (0 no effect, 100 complete control), read-out: Bermudagrass plant response rating",75%
same,pest or weed control at 125 g/ha,"[4]; 125 g ai/ha, scale 0 to 100 (0 no effect, 100 complete control), read-out: Bermudagrass plant response rating",80%
same,pest or weed control at 16 g/ha,"[5]; 16 g ai/ha, read-out: Plant response rating (scale of 0 to 100), Lambsquarters",95%
same,pest or weed control at 31 g/ha,"[5]; 31 g ai/ha, read-out: Plant response rating (scale of 0 to 100), Lambsquarters",95%
same,pest or weed control at 62 g/ha,"[5]; 62 g ai/ha, read-out: Plant response rating (scale of 0 to 100), Lambsquarters",95%
same,pest or weed control at 125 g/ha,"[5]; 125 g ai/ha, scale 0 to 100 (0 no effect, 100 complete control), read-out: Lambsquarters plant response rating",100%
same,pest or weed control at 125 g/ha,[6]; [12],45%
same,pest or weed control at 500 g/ha,[6]; [12],65%
same,pest or weed control at 125 g/ha,[6]; [13],20%
same,pest or weed control at 500 g/ha,[6]; [13],40%
same,pest or weed control at 125 g/ha,[7]; [12],70%
same,pest or weed control at 500 g/ha,[7]; [12],75%
same,pest or weed control at 125 g/ha,[7]; [13],30%
same,pest or weed control at 500 g/ha,[7]; [13],35%
same,pest or weed control at 125 g/ha,[8]; [12],80%
same,pest or weed control at 500 g/ha,[8]; [12],85%
same,pest or weed control at 125 g/ha,[8]; [13],90%
same,pest or weed control at 500 g/ha,[8]; [13],95%
same,pest or weed control at 125 g/ha,[9]; [12],90%
same,pest or weed control at 500 g/ha,[9]; [12],90%
same,pest or weed control at 125 g/ha,[9]; [13],75%
same,pest or weed control at 500 g/ha,[9]; [13],90%
same,pest or weed control at 125 g/ha,[10]; [12],30%
same,pest or weed control at 500 g/ha,[10]; [12],60%
same,pest or weed control at 125 g/ha,[10]; [13],5%
same,pest or weed control at 500 g/ha,[10]; [13],40%
same,pest or weed control at 125 g/ha,[11]; [12],35%
same,pest or weed control at 500 g/ha,[11]; [12],50%
same,pest or weed control at 125 g/ha,[11]; [13],45%
same,pest or weed control at 500 g/ha,[11]; [13],55%
